Measured values: PMC10644722, “Discovery of inhibitors of protein tyrosine phosphatase 1B contained in a natural products library from Mexican medicinal plants and fungi using a combination of enzymatic and in silico methods**” (Frontiers in Pharmacology, 2023)
Several values for one entry are separate records, joined by “and”; a condition that tells them apart may be missing. Equal entries are not always repeated. Entries after “also recorded” stand apart in the source; their conditions may differ. Where two headings read alike, the source gives them in different places.

Assays:
hPTP1B1-400 = target: T1, hPTP1B1-400 (Homo sapiens, UniProt P18031); test: PTP1B inhibition assay (spectrophotometric, 4-nitrophenyl phosphate); format: biochemical; conditions: for ΔA, activity difference between UA and the compound: absolute pIC50 difference against ursolic acid
T1 sequence (P18031 1-400): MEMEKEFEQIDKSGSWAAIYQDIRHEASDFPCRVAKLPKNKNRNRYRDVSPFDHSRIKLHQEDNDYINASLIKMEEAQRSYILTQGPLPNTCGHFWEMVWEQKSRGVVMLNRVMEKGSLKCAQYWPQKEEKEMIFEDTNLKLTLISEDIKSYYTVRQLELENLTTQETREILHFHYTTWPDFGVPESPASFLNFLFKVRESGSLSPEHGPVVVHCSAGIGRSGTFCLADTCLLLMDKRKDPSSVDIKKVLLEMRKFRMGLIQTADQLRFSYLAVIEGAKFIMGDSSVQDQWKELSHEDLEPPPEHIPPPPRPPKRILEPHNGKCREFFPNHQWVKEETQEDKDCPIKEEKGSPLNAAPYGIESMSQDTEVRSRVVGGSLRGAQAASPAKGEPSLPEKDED
Protocol: The inhibitory activity was determined as a percentage compared to the blank (Buffer) according to the following equation: %InhibitionPTP1B=1−A405s/A405b×100%, (1) where A405(s) is the ΔA of the sample (At20 − At0), A405(b) is the ΔA of the blank obtained in the same manner as that of the sample. Using the data obtained, the enzyme inhibition curve was plotted, for which the average percentage of inhibition was plotted as a function of the inhibitor concentration.

PTP1B = target: T2, PTP1B (Homo sapiens, UniProt P18031); test: Kinetic analysis of PTP1B inhibition; format: biochemical; conditions: for type of inhibition: double-reciprocal plots, global nonlinear fit; for VMAX: maximum velocity, nonlinear fit, substrate 4-NP
T2 sequence (P18031 1-400): T1 sequence (P18031 1-400)
Protocol: The conditions for preparing reagents (enzyme and substrate), incubation, and analysis of results were the same as that described in Section 2.1 ([Jiménez-Arreola et al., 2020]; [Díaz-Rojas et al., 2021]). Additional steps in the methodology are described below.
To characterize the type of inhibition exerted by 1, 3, and 6 on PTP1B, the hydrolysis of 4-NP at the sub-saturating state and increasing concentrations of each compound was measured. […] The compound concentration yielding 50% activity inhibition was interpolated from the results by fitting into a general inhibition model. The resulting set of activities was fitted globally using the non-linear regression algorithm of Levenberg–Marquardt as implemented in the Gnuplot ([Williams et al., 2017]). Each group was fitted to the kinetic equations for linear competitive, linear uncompetitive, linear non-competitive (classic), linear mixed type, parabolic competitive, parabolic uncompetitive, and parabolic non-competitive inhibition mechanisms. The best fit was ascertained by the reduced chi-squared (χ^2) value, residual distribution, and uncertainty in the parameter estimates. The best description of the inhibition data for compounds 1, 3, and 6 was obtained with Eq. 2, Eq. 3, and Eq. 4, respectively, where VMAX, KM, and KIcu, KIC, and KIU are the maximum velocity, Michaelis constant for the substrate 4-NP, and inhibition constants for each type of inhibition, respectively. v0=VMAX4NP/KM1+I/KIcu+4NP1+I/KIcu, (2) v0=VMAX4NP/KM1+I/KIC+4NP1+I/KIU, (3) v0=VMAX4NP/KM1+I/KIC+I^2/KIC2^2+4NP. (4)

[1] = DoseResp model fit, Origin 8.0, axis C (mM), read-out: LOGx0 of the IC50 curve
[2] = enzyme 66 nM, 4-NP 0.125 mM, Tris-HCl pH 6.8, 20 min, room temperature, read-out: IC50
[3] = negative log of the IC50 in Molar, read-out: pIC50 (converted)
[4] = negative log of the IC50 in Molar
[5] = Hill1 model fit, Origin 8.0, axis C (mM), read-out: k of the IC50 curve
[6] = IC50 (μM), enzyme 66 nM, 4-NP 0.125 mM, Tris-HCl pH 6.8, 20 min, room temperature
[7] = LOGx0 of the IC50 curve, DoseResp model fit, Origin 8.0, axis C (mM)
[8] = pIC50, negative log of the IC50 in Molar

Compound | IC50 (hPTP1B1-400; [1]) | ΔA, activity difference between UA and the compound (hPTP1B1-400) | IC50 (hPTP1B1-400; [2]) | IC50 (hPTP1B1-400; [3]) | pIC50 (hPTP1B1-400; [4]) | further results
C[C@H]1C(=O)CC[C@@H]2[C@]1(C)CC[C@H]1[C@@]2(C)CC[C@@]2(C)[C@@H]3CC(C)(C)CC[C@]3(CO)CC[C@]12C [Compound 1, Canophyllol] | 0.0332 ± 0.00257 mM | 0.2 | 0.0332 ± 3e-06 mM | 0.0331 mM |  | %I (hPTP1B1-400; 0.02 mM compound): 95.54 ± 1.82%; %I (hPTP1B1-400; 1 mM compound): 98.59 ± 0.28%; type of inhibition (PTP1B): non-competitive inhibitor; VMAX (PTP1B): 44.1 mM/min; Ki (PTP1B; non-competitive model (Eq. 2), read-out: KIcu): 9 µM
COc1c(O)cc2ccc3cccc(O)c3c2c1OC [Compound 3, 3,4-Dimethoxy-2,5-phenanthrenediol] | 0.0477 ± 0.0982 mM | 0.34 and 0.3 | 0.0477 ± 0.0001 mM | 0.0479 mM |  | %I (hPTP1B1-400; 0.02 mM compound): 70.62 ± 0.58%; %I (hPTP1B1-400; 1 mM compound): 97.4 ± 0.69%; type of inhibition (PTP1B): mixed-type; also recorded: mixed inhibitor; VMAX (PTP1B): 56.1 mM/min; Ki (PTP1B; mixed type (Eq. 3) or parabolic competitive model (Eq. 4), read-out: KIC): 40 µM; Ki (PTP1B; mixed type model (Eq. 3), read-out: KIU): 110 µM
O=C1C[C@@H](c2ccccc2)Oc2cc(O)cc(O)c21 [Compound 53, Pinocembrin] | 0.306 ± 0.0184 mM | 1.1 | 0.3062 ± 2e-05 mM | 0.309 mM |  | 
C[C@H]1C(=O)CC[C@@H]2[C@]1(C)CC[C@H]1[C@@]2(C)CC[C@@]2(C)[C@@H]3CC(C)(C)CC[C@]3(C)CC[C@]12C [Compound 56, Friedelin] | 0.888 ± 0.0408 mM | 1.6 and 1.61 | 0.8878 ± 4e-05 mM | 0.891 mM |  | 
COc1cc(=O)oc2c(O[C@@H]3O[C@H](CO)[C@@H](O)[C@H](O)[C@H]3O)ccc(C)c12 [Compound 63, 8-β-D-glucopyranosyloxy-4-methoxy-5-methyl-coumarin] | 0.166 ± 0.0177 mM | 0.9 | 0.1657 ± 2e-05 mM |  | 3.78 | 
C=C(C)C(C)(C)CCC(C)C1CCC2(C)C3CCC4C(C)(CCC(O)C4(C)C)C3=CCC12C (stereo not drawn) [Compound 64, 5α-lanosta-24,24-dimethyl-9(11),25-dien-3β-ol] | 0.399 ± 0.025 mM | 1.3 | 0.3985 ± 3e-05 mM | 0.398 mM |  | 
CC(=O)OC[C@H]1O[C@@H](Oc2cc(O)cc3oc(=O)cc(-c4ccc(O)c(O)c4)c23)[C@H](O)[C@@H](O)[C@H]1O [Compound 67, 6''-O-acetyl-5-O-β-D-galactopyranosyl-7,3',4'-trihydroxy-4-phenylcoumarin] | 0.254 ± 0.203 mM | 1.1 | 0.2543 ± 0.0002 mM |  | 3.59 | 
COc1cc(O[C@@H]2O[C@H](CO[C@@H]3OCC(O)(CO)[C@H]3O)[C@@H](O)[C@H](O)[C@H]2O)c2c(-c3ccc(O)c(O)c3)cc(=O)oc2c1 (stereo partly drawn) [Compound 73, 5-O-β-D-Apiofuranosyl-(1→6)-β-D-glucopyranosyl-7-metoxi-3'-4'-dihydroxy-4-phenylcoumarin] | 0.359 ± 0.0682 mM | 1.2 | 0.3586 ± 7e-05 mM |  | 3.45 | 
O=C(O[C@@H]1Cc2c(O)cc(O)cc2O[C@@H]1c1ccc(O)c(O)c1)c1cc(O)c(O)c(O)c1 [Compound 82, (-)-Epicatechin 3-O-gallate] |  | 0.8 | 0.1424 ± 7e-06 mM |  | 3.85 | IC50 (hPTP1B1-400; [5]): 0.142 ± 0.00656 mM
CCC(C=CC(C)C1CCC2C3=CCC4CC(O)CCC4(C)C3CCC21C)C(C)C (stereo not drawn) [Compound 84, α-Spinasterol] | 0.989 ± 0.137 mM | 1.7 and 1.66 | 0.9891 ± 0.00014 mM | 1 mM |  | 
CC[C@H](/C=C/[C@@H](C)[C@H]1CC[C@H]2C3=CC[C@H]4C[C@@H](OC(C)=O)CC[C@]4(C)[C@H]3CC[C@]12C)C(C)C [Compound 85, α-Spinasterol acetate] |  | 1.1 |  |  |  | IC50 (hPTP1B1-400; [6]): 0.2772 ± 1e-05 mM; IC50 (hPTP1B1-400; [7]): 0.277 ± 0.0114 mM; IC50 (hPTP1B1-400; [8]): 0.275 mM
COC(=O)/C(C)=C\CC[C@H](C)[C@@H]1CC[C@]2(C)C3=CCC4C(C)(C)C(=O)CC[C@]4(C)C3CC[C@@]12C (some centres unmarked) [Compound 86, Methyl ester of masticadienonic acid] | 0.325 ± 0.00894 mM | 1.2 | 0.3245 ± 1e-06 mM | 0.324 mM |  | 
CC(=CCCC(C)C1CCC2(C)C3=C(CCC12C)C1(C)CCC(=O)C(C)(C)C1CC3)C(=O)O (centres unmarked) [Compound 89, Isomasticadienonic acid] | 0.419 ± 0.00938 mM | 1.3 and 1.28 | 0.419 ± 1e-05 mM | 0.417 mM |  | 
CC(=O)OCC(C)C1CCC2(C)C1CCC1(C)C2CCC2C3(C)CCCC(C)(C)C3CCC21C (stereo not drawn) [Compound 90, 21-α-H-Hopane acetate] |  | 1.6 and 1.61 | 0.8839 ± 0.0002 mM | 0.891 mM |  | IC50 (hPTP1B1-400; [5]): 0.884 ± 0.213 mM
COc1cc(CCc2ccc(OC)c(OC)c2)cc(OC)c1 [Compound 91, 3,3',4',5-Tetramethoxybibenzyl] |  | 1.3 |  |  |  | IC50 (hPTP1B1-400; [6]): 0.4195 ± 6e-06 mM; IC50 (hPTP1B1-400; [7]): 0.42 ± 0.00629 mM; IC50 (hPTP1B1-400; [8]): 0.417 mM
CC1(C)C=Cc2cc3ccc(=O)oc3cc2O1 [Compound 93, Xanthyletin] |  | 1.6 | 0.8646 ± 0.00015 mM | 0.871 mM |  | IC50 (hPTP1B1-400; [5]): 0.865 ± 0.148 mM
COc1c2c(cc3oc(C)cc(=O)c13)OC(C)(C)[C@H](O)C2 [Compound 94, (+)-5-Methoxyhamaudol] |  | 1.1 | 0.2985 ± 0.00015 mM |  | 3.53 | IC50 (hPTP1B1-400; [5]): 0.298 ± 0.146 mM
C=CC(C)(C)C12CC3(O)c4nc5ccccc5c(=O)n4C(C(C)C)C(=O)N3C1N(C(C)=O)c1ccccc12 (centres unmarked) [Compound 96, Albolutein A] |  | -0.1 | 0.0191 ± 0.0014 mM | 0.0191 mM |  | 
C=CC(C)(C)[C@@]12Nc3ccccc3[C@]1(O)C[C@@]1(O)c3nc4ccccc4c(=O)n3[C@@H](C(C)C)C(=O)N12 [Compound 97, Albolutein B] |  | 0.1 | 0.0258 ± 0.0258 mM |  | 4.59 | 
Albolutein C [Compound 98] |  | 0.8 | 0.13 ± 0.0026 mM |  | 3.89 | 
Calein A [Compound 46] | 0.234 ± 0.0196 mM | 1.0 | 0.2345 ± 2e-05 mM |  | 3.63 | 
